Reference: the NIST ThermoML archive (doi:10.1021/je800110r)

Details: 333.15 K, Liquid, Vibrating tube method

CCCCCCCCCC [decane]
Details	mass density [kg/m3]
10425 kPa	708.9
10455 kPa	709
10482 kPa	709
10506 kPa	709.1
10526 kPa	709
10553 kPa	709.1
10580 kPa	709
10603 kPa	709.1
10630 kPa	709.2
10657 kPa	709
10677 kPa	709.3
10704 kPa	709.2
10743 kPa	709.3
10772 kPa	709.2
10799 kPa	709.4
10828 kPa	709.3
10856 kPa	709.3
10884 kPa	709.3
10917 kPa	709.4
10950 kPa	709.4
10976 kPa	709.4
11009 kPa	709.5
11035 kPa	709.6
11073 kPa	709.6
11102 kPa	709.7
11132 kPa	709.6
11162 kPa	709.7
11188 kPa	709.5
11219 kPa	709.7
11250 kPa	709.7
11277 kPa	709.8
11304 kPa	709.8
11330 kPa	709.7
11357 kPa	709.7
11398 kPa	709.8
11428 kPa	709.8
11460 kPa	709.8
11492 kPa	709.9
11533 kPa	709.9
11566 kPa	710
11596 kPa	710
11635 kPa	710
11662 kPa	710
11697 kPa	710.1
11733 kPa	710.1
11760 kPa	710.1
11796 kPa	710.2
11827 kPa	710.2
11859 kPa	710.2
11895 kPa	710.2
11932 kPa	710.4
11974 kPa	710.4
11998 kPa	710.3
12044 kPa	710.4
12087 kPa	710.5
12115 kPa	710.6
12144 kPa	710.4
12187 kPa	710.4
12857 kPa	711
12881 kPa	711.2
12919 kPa	711.2
12952 kPa	711.1
12983 kPa	711.3
13020 kPa	711.3
13053 kPa	711.2
13085 kPa	711.3
13153 kPa	711.4
13172 kPa	711.5
13195 kPa	711.4
13213 kPa	711.4
13239 kPa	711.4
13261 kPa	711.4
13279 kPa	711.4
13300 kPa	711.5
13315 kPa	711.4
13337 kPa	711.4
13353 kPa	711.6
13598 kPa	711.7
13618 kPa	711.8
13633 kPa	711.7
13652 kPa	711.8
13667 kPa	711.7
13682 kPa	711.8
13695 kPa	711.7
13715 kPa	711.7
13728 kPa	711.9
13740 kPa	711.9
13756 kPa	711.8
13775 kPa	711.9
13790 kPa	711.9
13804 kPa	712
13817 kPa	711.9
13834 kPa	712
13854 kPa	712
13867 kPa	711.9
13887 kPa	712
13913 kPa	712.1
13929 kPa	712.1
13951 kPa	712
13965 kPa	712.1
13981 kPa	712.1
13994 kPa	712
14010 kPa	712.1
14027 kPa	712.1
14048 kPa	712.3
14066 kPa	712.2
14089 kPa	712.2
14106 kPa	712.1
14128 kPa	712.2
14140 kPa	712.1
14154 kPa	712.2
14172 kPa	712.3
14186 kPa	712.3
14205 kPa	712.3
14217 kPa	712.3
14240 kPa	712.4
14902 kPa	712.8
14923 kPa	712.9
14943 kPa	713
14961 kPa	713.1
15005 kPa	712.9
15028 kPa	713
15046 kPa	712.9
15070 kPa	713
15086 kPa	713
15104 kPa	712.9
15126 kPa	713
15147 kPa	713
15166 kPa	713
15205 kPa	713.2
15267 kPa	713.2
15394 kPa	713.3
15411 kPa	713.3
15435 kPa	713.4
15452 kPa	713.4
15479 kPa	713.3
15499 kPa	713.4
